Measurements reported in patent US10919887B2, “Salts and solid forms of a monobactam antibiotic” (Novartis AG, priority 2015, dated 2021).
Converted amounts (≈) assume the structure as drawn.

How the values were obtained:
[1] = Stability of solid forms as relative humidity is varied; assay type: physicochemical
Method: This material is referred to herein as Form 5.
Water (20 mL) and THF (40 mL) were mixed in a flask, and Compound X (10 g, ca. 91% pure by HPLC) was added with stirring at 25° C. to provide a clear yellow solution. A 20 mg sample of Form 5 (see above) was added as a seed, and the mixture was stirred for 50 mins. THF (140 mL) was then added slowly, over 1 hr and the mixture was stirred for 2 hr more. The suspension was filtered, and the wet cake was washed with cold (<5° C.) water, then dried at 20-25° C. for 11 hrs at 100 mbar pressure, providing 6.6 g of Form 5 trihydrate that was 97.8% pure by HPLC. It appears stable when stored at 25-50% relative humidity, preferably 30-40% RH; at lower or higher relative humidity, it may evolve to different hydrated states as described herein.
Compound X of Form 1 (anhydrate) was exposed to 43% relative humidity for one day or more. The crystalline product appears to be a sesquihydrate (Compound X-1.5 H2O) based on water content determination. Note that Form 5, the trihydrate, under similar conditions would be stable, yet when starting with the anhydrate, it appears to equilibrate as a sequihdyrate under these conditions and remains in that form for at least 14 days when kept at the same relative humidity. This crystalline form produces the XRPD spectrum shown in FIG. 11, and is referred to herein as Form 10. The table below summarizes the main peaks in the XRPD of this sample.
Compound X of Form 5, the trihydrate, was exposed to relative humidity of 22% for about 3 days to provide a crystalline solid characterized as a dihydrate (Compound X-2H2O) based on water content analysis. […] The dihydrate, referred to herein as Form 11, produced the XRPD spectrum shown in FIG. 12: the main peaks in that XRPD spectrum are listed in the following table.
Compound X of Form 5 was exposed to air with a relative humidity of 65% for about 3 days, providing a crystalline material characterized as a tetra-hydrate based on water content analysis. […] The tetrahydrate, referred to herein as Form 12, produced the XRPD spectrum shown in FIG. 13: the main peaks in that XRPD spectrum are listed in the following table.
Note that at 92% relative humidity, Compound X appears to be a mixture of a crystal form characterized as hexahydrate mixed with the tetrahydrate of Form 12. By comparison, the anhydrate (Form 1) preferentially converts to a sesquihydrate as the relative humidity is increased to 43%, and evolves to trihydrate and tetrahydrate at higher relative humidities.

[2] = Stability testing of solid salts at 25° C. and 40° C., purity by HPLC; assay type: physicochemical; conditions: solid salt
Method: Salts of Compound X were prepared by adding a base (1.0 or 2.0 equiv.) to Compound X in water, and lyophilizing the solution. The solids thus obtained appear to be amorphous by XRPD. In this manner, formation of salts of Compound X were attempted with sodium hydroxide, (L)-lysine, (L)-arginine, calcium hydroxide, meglumine, and magnesium hydroxide.
Samples of the disodium salt and the di-(L)-arginine salt as solids were subjected to stability testing at 25° C. and 40° C. The sample of sodium salt was 97.2% pure by HPLC initially, and after 6 weeks at 25° C., it was still 96.2% pure. The same material held at 40° C. was 94.8% pure after 3 weeks, and 93.6% pure after 6 weeks. Significant impurities that appear or increase during the study appear at relative retention times (RRT) 0.34 and 1.11 (with Compound X defined as RRT=1).
The arginine salt was 97.3% pure by HPLC initially, and was 96.3% pure after 6 weeks at 25° C. At 40° C., its purity dropped to 95.1% after 3 weeks and 94.2% after 6 weeks. Significant impurities that appear or increase during this study appear at relative retention times (RRT) 1.09, 1.11 and 1.13 (with Compound X defined as RRT=1). The HPLC traces for the samples from these stability studies after 6 weeks at 25° C. and 40° C. respectively are shown in FIGS. 10 and 11. The lower trace in each Figure is a sample used to measure the limit of quantitation (LOQ); the next trace above that represents the sample of Compound X used for salt formation; the next trace above that one is for the arginine salt after 6 weeks; and the next (top) trace is for the sodium salt after 6 weeks.
HPLC Conditions for the stability studies (FIGS. 10 and 11):
Agilent 1290 system with UV detector at 260 nm
Acquity HSS T3 column, 100 mm×2.1 mm ID; 1.8 μm particle size (supplied by Waters)
• A: 0.05% TFA in water • B: 0.05% TFA in methanol Flow rate: 0.45 mL/min Gradient (A/B ratio): 97:3 for 8 minutes; 75:25 for 3 minutes; 0:100 for 1 minute

[3] = Stability of Compound X and its salts in aqueous solution; assay type: physicochemical; conditions: salts made with 1.0 or 2.0 equiv. base, lyophilized; for aqueous media for intravenous use
Excerpt: It is important for a drug product to be stable enough to avoid significant degradation when it is shipped and stored under commercially practical conditions. The inventors have discovered that Compound X in solution is preferably used and stored at a pH between 4 and 6, preferably between 4.0 and 5.5, for maximum stability in the presence of moisture. Optimal solution stability is achieved at a pH of about 4.0 to 5.5 Accordingly, the invention provides pharmaceutical compositions comprising Compound X at a pH between 4 and 6, preferably between 4.0 and 5.5, and more preferably at a pH of about 5±0.5 or at pH of 5±0.2. Suitable compositions comprise Compound X in an aqueous solution, such as a dextrose or saline solution, which may be isotonic, and may contain other substances such as stabilizers, antioxidants, buffers or pH modifiers, nutrients, and the like. In some of these embodiments, the desired pH is achieved by combining Compound X and a pH modifier suitable to achieve the desired pH in an aqueous solution. Suitable pH modifiers include but are not limited to sodium hydroxide, sodium carbonate, sodium bicarbonate, potassium carbonate, potassium hydroxide, amines such as TRIS (tris(hydroxymethyl)aminomethane), and amino acids such as arginine, lysine, histidine, and the like. Known monobactams, including aztreonam, have been formulated with arginine. […]

[4] = test system: E. coli NB27273-CDY0026 (parent); assay: MIC by broth microdilution, isogenic E. coli parent strain; assay type: cell-based; conditions: Escherichia coli, read-out: Strain 1 MIC
Method: Bacterial isolates were cultivated from −70° C. frozen stocks by two consecutive overnight passages at 35° C. in ambient air on 5% blood agar (Remel, Lenexa, Kans.). Quality control and P. aeruginosa ATCC 27853) is from the American Type Culture Collection (ATCC; Rockville, Md.) and PAO1 was received from Dr. K. Poole.
Strain NB27273 (BW25113 pspB::Km^r) was obtained from the Keio transposon insertion collection. The strain has the pspB gene replaced by a kanamycin resistance marker (BW25113 pspB::Km^r). This strain was cured of the transposon in pspB via FLP recombinase using published methodology. The resulting strain, BW25113 pspB, was used as a host for multicopy vectors expressing key β-lactamases. Multicopy plasmids directing constitutive expression of β-lactamases were established as follows: Synthetic, codon optimized genes encoding E. coli KPC2 and SHV12-lactamases were made by DNA2.0 (Palo Alto, Calif.). Each of the synthetic fragments were designed to contain NotI and NcoI restriction sites at their termini, allowing ligation into a NotI/NcoI digested pET28a(+) derivative for protein expression. […]

Nc1nc(/C(=N/OC2(C(=O)O)CC2)C(=O)N[C@@H]2C(=O)N(S(=O)(=O)O)[C@@H]2CN2CCOC2=O)cs1 [Form 5]
form change at high relative humidity ([1]; RH above 80%): converts to Form 4 within a day
relative humidity at which the form appears stable when stored ([1]; storage of Form 5 trihydrate): 25-50%

Nc1nc(/C(=N/OC2(C(=O)O)CC2)C(=O)N[C@@H]2C(=O)N(S(=O)(=O)O)[C@@H]2CN2CCOC2=O)cs1 [Form 10]
time the form remains unchanged ([1]; kept at 43% relative humidity): at least 14 days

Nc1nc(/C(=N/OC2(C(=O)O)CC2)C(=O)N[C@@H]2C(=O)N(S(=O)(=O)O)[C@@H]2CN2CCOC2=O)cs1 [Form 12]
form change when relative humidity is reduced ([1]; relative humidity reduced to about 40%): readily reverts to the trihydrate (Form 5)

N=C(N)NCCC[C@H](N)C(=O)O.N=C(N)NCCC[C@H](N)C(=O)O.Nc1nc(/C(=N/OC2(C(=O)O)CC2)C(=O)N[C@@H]2C(=O)N(S(=O)(=O)O)[C@@H]2CN2CCOC2=O)cs1 [arginine salt]
purity by HPLC ([2]; after 3 weeks at 40° C.): 95.1%
purity by HPLC ([2]; after 6 weeks at 25° C.): 96.3%
purity by HPLC ([2]; after 6 weeks at 40° C.): 94.2%
purity by HPLC ([2]; initially): 97.3%
stability of salts [3]: particularly stable

C[C@H]1[C@H](NC(=O)/C(=N\OC(C)(C)C(=O)O)c2csc(N)n2)C(=O)N1S(=O)(=O)O [compound 1]
MIC [4]: 0.125 µg/mL (≈ 0.287 µM)
